Results published in patent publication US10800741B2 (ANCUREALL PHARMACEUTICAL (SHANGHAI) CO., LTD., priority 2017, dated 2020).
Read-outs that look alike come from different tables or passages of the source.

Tests used:
Assay in all cases: KINOMEscan in vitro binding to 468 labeled protein kinases
[1] = target: T1, protein kinases (Homo sapiens, UniProt P00519, F317I); conditions: read-out: Test compound/solvent control (%); for remaining binding at 0.001 µM: 1 nM; for remaining binding at 0.01 µM: 10 nM; for remaining binding at 1 µM: 1000 nM
T1 construct: purchased Discovery X company (USA), KINOMEscan screening platform
T1 sequence (P00519 whole entry F317I): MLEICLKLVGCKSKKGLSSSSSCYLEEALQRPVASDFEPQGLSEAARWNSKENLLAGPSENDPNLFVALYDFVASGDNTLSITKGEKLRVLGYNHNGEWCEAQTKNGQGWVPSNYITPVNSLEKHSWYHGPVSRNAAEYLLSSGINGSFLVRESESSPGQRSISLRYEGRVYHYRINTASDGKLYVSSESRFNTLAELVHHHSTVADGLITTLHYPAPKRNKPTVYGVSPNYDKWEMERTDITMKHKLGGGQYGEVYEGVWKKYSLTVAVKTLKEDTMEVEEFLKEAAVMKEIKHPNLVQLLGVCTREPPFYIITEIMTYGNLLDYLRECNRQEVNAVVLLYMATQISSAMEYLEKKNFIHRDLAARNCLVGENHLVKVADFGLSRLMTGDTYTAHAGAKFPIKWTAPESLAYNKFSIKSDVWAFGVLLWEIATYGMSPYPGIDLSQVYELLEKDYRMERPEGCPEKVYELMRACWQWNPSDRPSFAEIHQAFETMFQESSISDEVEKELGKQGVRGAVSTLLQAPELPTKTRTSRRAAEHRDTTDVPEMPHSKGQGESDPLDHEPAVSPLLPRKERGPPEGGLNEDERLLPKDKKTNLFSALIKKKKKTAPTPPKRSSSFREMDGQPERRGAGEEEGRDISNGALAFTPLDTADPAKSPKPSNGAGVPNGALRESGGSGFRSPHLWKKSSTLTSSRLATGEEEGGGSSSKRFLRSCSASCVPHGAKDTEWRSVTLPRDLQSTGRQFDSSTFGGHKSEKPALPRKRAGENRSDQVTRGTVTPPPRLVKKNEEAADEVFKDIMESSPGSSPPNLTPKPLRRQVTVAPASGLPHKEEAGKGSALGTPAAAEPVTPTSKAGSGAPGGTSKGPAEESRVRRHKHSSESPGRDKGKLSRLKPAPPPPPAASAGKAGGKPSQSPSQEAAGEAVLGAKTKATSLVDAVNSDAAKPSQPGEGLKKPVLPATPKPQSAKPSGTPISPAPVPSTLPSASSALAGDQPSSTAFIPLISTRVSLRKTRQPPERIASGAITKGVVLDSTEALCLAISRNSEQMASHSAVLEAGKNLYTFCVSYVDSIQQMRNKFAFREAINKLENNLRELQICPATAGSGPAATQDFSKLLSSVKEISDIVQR
Method in brief: (§1)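 Competition binding across 468 labelled kinases on the KINOMEscan platform, compound tested at 1000 nM, 10 nM and 1 nM, duplicate samples. Result given as percentage of DMSO solvent control; lower percentage means stronger binding.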

[2] = target: T2, protein kinases (Homo sapiens, UniProt P00533); conditions: EGFR
T2 construct: purchased Discovery X company (USA), KINOMEscan screening platform
T2 sequence (P00533 25-1210): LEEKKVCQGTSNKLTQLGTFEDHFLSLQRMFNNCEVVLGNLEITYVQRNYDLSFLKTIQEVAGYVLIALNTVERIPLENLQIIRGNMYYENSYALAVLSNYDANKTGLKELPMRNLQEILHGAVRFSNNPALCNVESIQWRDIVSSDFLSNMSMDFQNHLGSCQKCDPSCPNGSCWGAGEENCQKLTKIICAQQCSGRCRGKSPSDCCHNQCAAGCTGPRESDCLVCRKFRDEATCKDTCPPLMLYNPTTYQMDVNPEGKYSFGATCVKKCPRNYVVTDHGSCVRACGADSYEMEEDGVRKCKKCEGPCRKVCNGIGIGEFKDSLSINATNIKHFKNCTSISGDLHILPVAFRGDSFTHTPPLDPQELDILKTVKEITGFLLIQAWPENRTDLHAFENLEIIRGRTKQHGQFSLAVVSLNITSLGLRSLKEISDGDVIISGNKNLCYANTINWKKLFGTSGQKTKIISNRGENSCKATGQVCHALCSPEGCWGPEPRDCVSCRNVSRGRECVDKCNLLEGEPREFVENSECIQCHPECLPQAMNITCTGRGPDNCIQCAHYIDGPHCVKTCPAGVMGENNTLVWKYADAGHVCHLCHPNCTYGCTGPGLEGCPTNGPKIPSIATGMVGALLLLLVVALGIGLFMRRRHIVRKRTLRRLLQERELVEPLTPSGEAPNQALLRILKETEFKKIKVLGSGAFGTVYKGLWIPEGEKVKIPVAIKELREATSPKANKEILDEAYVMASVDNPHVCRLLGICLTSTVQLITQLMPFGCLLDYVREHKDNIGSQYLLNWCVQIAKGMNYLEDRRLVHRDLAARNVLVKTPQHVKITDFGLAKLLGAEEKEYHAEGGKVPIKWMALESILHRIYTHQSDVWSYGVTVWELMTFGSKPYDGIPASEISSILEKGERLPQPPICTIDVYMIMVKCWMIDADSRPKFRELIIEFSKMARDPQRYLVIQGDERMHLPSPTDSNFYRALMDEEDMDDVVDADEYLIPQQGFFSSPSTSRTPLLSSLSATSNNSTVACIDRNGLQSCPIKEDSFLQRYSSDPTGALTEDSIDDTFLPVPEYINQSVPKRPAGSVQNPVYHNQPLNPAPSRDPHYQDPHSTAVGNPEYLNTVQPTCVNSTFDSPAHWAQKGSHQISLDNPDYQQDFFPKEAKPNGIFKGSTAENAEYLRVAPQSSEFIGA
Method in brief: as §1

[3] = target: T3, protein kinases (Homo sapiens, UniProt P07949, V804M); conditions: RET(V804M), read-out: Test compound/solvent control (%)
T3 construct: purchased Discovery X company (USA), KINOMEscan screening platform
Method in brief: as §1

[4] = target: T4, protein kinases (Homo sapiens, UniProt P10721); conditions: KIT, read-out: Test compound/solvent control (%)
T4 construct: purchased Discovery X company (USA), KINOMEscan screening platform
T4 sequence (P10721 26-976): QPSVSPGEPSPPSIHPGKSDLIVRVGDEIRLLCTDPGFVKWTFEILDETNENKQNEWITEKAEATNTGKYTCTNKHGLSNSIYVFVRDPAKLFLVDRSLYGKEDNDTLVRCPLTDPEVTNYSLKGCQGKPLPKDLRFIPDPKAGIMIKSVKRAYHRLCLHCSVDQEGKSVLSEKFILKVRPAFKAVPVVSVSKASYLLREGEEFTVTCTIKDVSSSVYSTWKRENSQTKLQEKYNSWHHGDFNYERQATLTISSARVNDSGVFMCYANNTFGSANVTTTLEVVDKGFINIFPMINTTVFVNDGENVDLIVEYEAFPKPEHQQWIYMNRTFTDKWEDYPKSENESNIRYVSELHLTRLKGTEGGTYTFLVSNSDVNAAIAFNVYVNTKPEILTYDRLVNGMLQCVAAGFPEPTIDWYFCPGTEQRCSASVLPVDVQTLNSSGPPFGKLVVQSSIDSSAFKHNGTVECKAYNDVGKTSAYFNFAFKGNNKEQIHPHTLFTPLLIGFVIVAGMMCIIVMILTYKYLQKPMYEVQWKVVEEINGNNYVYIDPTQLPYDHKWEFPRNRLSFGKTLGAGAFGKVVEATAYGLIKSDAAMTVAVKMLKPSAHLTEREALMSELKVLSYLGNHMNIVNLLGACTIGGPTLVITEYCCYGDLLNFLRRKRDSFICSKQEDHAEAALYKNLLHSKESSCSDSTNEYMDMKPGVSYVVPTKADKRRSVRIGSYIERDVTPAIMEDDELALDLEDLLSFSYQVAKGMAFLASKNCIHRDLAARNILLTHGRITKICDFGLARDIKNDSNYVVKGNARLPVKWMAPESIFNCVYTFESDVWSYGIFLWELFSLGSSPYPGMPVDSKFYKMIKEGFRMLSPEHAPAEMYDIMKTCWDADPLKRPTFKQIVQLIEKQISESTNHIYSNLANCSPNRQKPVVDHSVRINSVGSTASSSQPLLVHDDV
Method in brief: as §1

[5] = target: T5, protein kinases (Homo sapiens, UniProt P11362); conditions: FGFR1, read-out: Test compound/solvent control (%)
T5 construct: purchased Discovery X company (USA), KINOMEscan screening platform
T5 sequence (P11362 22-822): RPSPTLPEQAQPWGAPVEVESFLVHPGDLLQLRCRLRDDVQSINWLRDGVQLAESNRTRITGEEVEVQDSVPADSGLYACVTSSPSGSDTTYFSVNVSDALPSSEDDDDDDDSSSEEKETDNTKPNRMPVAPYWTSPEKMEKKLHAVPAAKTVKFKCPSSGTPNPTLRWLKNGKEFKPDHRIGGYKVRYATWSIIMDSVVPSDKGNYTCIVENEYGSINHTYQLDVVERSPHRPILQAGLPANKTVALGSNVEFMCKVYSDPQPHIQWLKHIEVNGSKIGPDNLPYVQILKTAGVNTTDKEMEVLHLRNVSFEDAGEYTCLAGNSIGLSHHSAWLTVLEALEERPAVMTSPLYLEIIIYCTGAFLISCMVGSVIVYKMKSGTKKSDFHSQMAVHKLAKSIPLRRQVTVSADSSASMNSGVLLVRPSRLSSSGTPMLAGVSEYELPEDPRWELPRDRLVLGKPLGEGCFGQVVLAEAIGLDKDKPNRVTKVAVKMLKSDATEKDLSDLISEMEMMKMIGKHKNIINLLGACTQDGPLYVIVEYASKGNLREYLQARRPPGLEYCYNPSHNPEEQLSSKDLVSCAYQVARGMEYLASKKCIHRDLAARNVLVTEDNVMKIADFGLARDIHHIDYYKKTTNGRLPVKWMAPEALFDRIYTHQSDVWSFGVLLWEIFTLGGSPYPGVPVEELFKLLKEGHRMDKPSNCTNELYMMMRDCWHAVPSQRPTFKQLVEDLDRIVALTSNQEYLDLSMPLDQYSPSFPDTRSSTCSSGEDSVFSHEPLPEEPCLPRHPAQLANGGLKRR
Method in brief: as §1

[6] = target: T6, protein kinases (Homo sapiens, UniProt P35590); conditions: TIE1, read-out: Test compound/solvent control (%)
T6 construct: purchased Discovery X company (USA), KINOMEscan screening platform
Method in brief: as §1

[7] = target: T7, protein kinases (Homo sapiens, UniProt P36888); conditions: FLT3, read-out: Test compound/solvent control (%)
T7 construct: purchased Discovery X company (USA), KINOMEscan screening platform
T7 sequence (P36888 27-993): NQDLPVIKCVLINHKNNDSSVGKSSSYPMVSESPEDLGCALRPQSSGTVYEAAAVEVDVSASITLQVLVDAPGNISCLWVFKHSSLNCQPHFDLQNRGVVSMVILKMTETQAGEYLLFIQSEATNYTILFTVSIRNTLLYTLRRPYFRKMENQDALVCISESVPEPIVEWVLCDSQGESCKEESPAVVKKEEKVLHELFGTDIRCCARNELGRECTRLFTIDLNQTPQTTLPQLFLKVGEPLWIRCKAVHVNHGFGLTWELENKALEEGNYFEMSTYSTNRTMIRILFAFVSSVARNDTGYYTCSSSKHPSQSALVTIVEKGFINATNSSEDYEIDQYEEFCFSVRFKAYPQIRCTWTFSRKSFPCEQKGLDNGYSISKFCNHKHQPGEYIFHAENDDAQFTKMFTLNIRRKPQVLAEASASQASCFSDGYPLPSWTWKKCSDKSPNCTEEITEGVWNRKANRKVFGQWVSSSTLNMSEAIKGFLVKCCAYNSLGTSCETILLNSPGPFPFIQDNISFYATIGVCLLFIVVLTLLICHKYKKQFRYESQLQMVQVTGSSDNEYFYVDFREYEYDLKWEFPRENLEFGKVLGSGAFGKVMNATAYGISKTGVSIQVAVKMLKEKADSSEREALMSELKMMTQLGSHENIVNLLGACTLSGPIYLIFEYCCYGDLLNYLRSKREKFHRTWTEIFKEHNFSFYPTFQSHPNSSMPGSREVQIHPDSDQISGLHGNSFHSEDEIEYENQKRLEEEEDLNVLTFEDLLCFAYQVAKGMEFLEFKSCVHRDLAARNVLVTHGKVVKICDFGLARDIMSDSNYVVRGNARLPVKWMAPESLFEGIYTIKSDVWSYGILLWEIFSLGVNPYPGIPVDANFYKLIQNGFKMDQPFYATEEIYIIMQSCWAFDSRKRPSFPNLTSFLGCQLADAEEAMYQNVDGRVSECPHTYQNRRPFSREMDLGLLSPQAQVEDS
Method in brief: as §1

[8] = target: T8, protein kinases (Homo sapiens, UniProt Q02763); conditions: TIE2, read-out: Test compound/solvent control (%)
T8 construct: purchased Discovery X company (USA), KINOMEscan screening platform
Method in brief: as §1

remaining binding at 0.001 µM ([1]; ABL1(F317I)-phosphorylated): 100%
remaining binding at 0.01 µM ([1]; ABL1(F317I)-phosphorylated): 31%
remaining binding at 1 µM ([1]; ABL1(F317I)-phosphorylated): 15%
remaining binding at 0.001 µM ([1]; ABL1(F317I)-unphosphorylated): 83%
remaining binding at 0.01 µM ([1]; ABL1(F317I)-unphosphorylated): 17%
remaining binding at 1 µM ([1]; ABL1(F317I)-unphosphorylated): 0.25%
Test compound/solvent control (%) ([2]; 1 nM): 100%
Test compound/solvent control (%) ([2]; 10 nM): 26%
Test compound/solvent control (%) ([2]; 1000 nM): 0%
remaining binding at 0.001 µM ([3]; 1 nM): 100%
remaining binding at 0.01 µM ([3]; 10 nM): 34%
remaining binding at 1 µM ([3]; 1000 nM): 0%
remaining binding at 0.001 µM ([4]; 1 nM): 90%
remaining binding at 0.01 µM ([4]; 10 nM): 27%
remaining binding at 1 µM ([4]; 1000 nM): 0%
remaining binding at 0.001 µM ([5]; 1 nM): 56%
remaining binding at 0.01 µM ([5]; 10 nM): 4.5%
remaining binding at 1 µM ([5]; 1000 nM): 0.3%
remaining binding at 0.001 µM ([6]; 1 nM): 41%
remaining binding at 0.01 µM ([6]; 10 nM): 21%
remaining binding at 1 µM ([6]; 1000 nM): 2%
remaining binding at 0.001 µM ([7]; 1 nM): 92%
remaining binding at 0.01 µM ([7]; 10 nM): 20%
remaining binding at 1 µM ([7]; 1000 nM): 1.9%
remaining binding at 0.001 µM ([8]; 1 nM): 59%
remaining binding at 0.01 µM ([8]; 10 nM): 3.8%
remaining binding at 1 µM ([8]; 1000 nM): 0.95%
SMILES: COCCOc1cc2nccc(Oc3ccc(NC(=O)Nc4cc(C(C)(C)C)n[nH]4)c(Cl)c3)c2cc1NC(C)=O [Compound 66, N-[4-{4-[3-(5-tert-butyl-2H-pyrazol-3-yl)-ureido]-3-chloro-phenoxy}-7-(2-methoxy-ethoxy)-quinolin-6-yl]-acetamide]
